Assays:
Pim1 kinase = Pim1 kinase (Homo sapiens, UniProt P11309); test: KinaseGlo Pim1 ATP depletion assay; format: biochemical; conditions: Table 4, 2.5 nM PIM1, 20 μM ATP, 40 μM BAD peptide
Protocol: The activity of PIM1 is measured using a luciferase-luciferin based ATP detection reagent to quantify ATP depletion resulting from kinase-catalyzed phosphoryl transfer to a peptide substrate. Compounds to be tested are dissolved in 100% DMSO and directly distributed into white 384-well plates at 0.5 μl per well. […] After 15 minutes, 10 μl of 40 μM ATP in assay buffer is added. […] The reaction is performed until approximately 50% of the ATP is depleted, then stopped with the addition of 20 μl KinaseGlo Plus (Promega Corporation) solution. The stopped reaction is incubated for 10 minutes and the remaining ATP detected via luminescence on the Victor2 (Perkin Elmer).

Pim2 kinase = Pim2 kinase (Homo sapiens, UniProt Q9P1W9); test: KinaseGlo Pim2 ATP depletion assay; format: biochemical; conditions: Table 4, 5 nM PIM2, 4 μM ATP, 10 μM BAD peptide
Protocol: (§1) The activity of PIM2 is measured using a luciferase-luciferin based ATP detection reagent to quantify ATP depletion resulting from kinase-catalyzed phosphoryl transfer to a peptide substrate. Compounds to be tested are dissolved in 100% DMSO and directly distributed into white 384-well plates at 0.5 μl per well. […] After 15 minutes, 10 μl of 8 μM ATP in assay buffer is added. Final assay concentrations are 5 nM PIM2, 4 μM ATP, 10 μM BAD peptide and 2.5% DMSO. The reaction is performed until approximately 50% of the ATP is depleted, then stopped with the addition of 20 μl KinaseGlo Plus (Promega Corporation) solution. The stopped reaction is incubated for 10 minutes and the remaining ATP detected via luminescence on the Victor2 (Perkin Elmer).

Pim3 kinase = Pim3 kinase (Homo sapiens, UniProt Q86V86); test: KinaseGlo Pim3 ATP depletion assay; format: biochemical; conditions: Table 4, 40 μM ATP, 100 μM BAD peptide
Protocol: as §1, with “of PIM3” for “of PIM2”, “of 80” for “of 8”, “nM PIM1, 40” for “nM PIM2, 4”, “ATP, 100” for “ATP, 10”, “stopped by” for “stopped with”

[1] = tested on: KMS11 (human myeloma cell line); test: Cell proliferation assay (CellTiter-Glo) in KMS11 cells; format: cell-based; conditions: KMS-11, 72 h, Table 4, 3 days, read-out: KMS11-luc EC50
Procedure, shortened: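 KMS11 cells at 2000 per well in IMDM/10% FBS were exposed to compound for 3 days. Viability was read by CellTiter-Glo luminescence.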

Sequence of Pim1 kinase (P11309 whole entry): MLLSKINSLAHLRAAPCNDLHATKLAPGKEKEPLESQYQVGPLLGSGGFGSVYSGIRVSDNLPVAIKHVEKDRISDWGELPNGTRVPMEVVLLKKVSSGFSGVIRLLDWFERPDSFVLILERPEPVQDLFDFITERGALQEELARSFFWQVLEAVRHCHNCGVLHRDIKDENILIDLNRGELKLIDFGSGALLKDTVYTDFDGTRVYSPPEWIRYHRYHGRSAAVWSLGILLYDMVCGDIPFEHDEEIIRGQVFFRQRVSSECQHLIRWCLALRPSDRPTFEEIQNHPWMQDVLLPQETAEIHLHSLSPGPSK
Sequence of Pim2 kinase (Q9P1W9 whole entry): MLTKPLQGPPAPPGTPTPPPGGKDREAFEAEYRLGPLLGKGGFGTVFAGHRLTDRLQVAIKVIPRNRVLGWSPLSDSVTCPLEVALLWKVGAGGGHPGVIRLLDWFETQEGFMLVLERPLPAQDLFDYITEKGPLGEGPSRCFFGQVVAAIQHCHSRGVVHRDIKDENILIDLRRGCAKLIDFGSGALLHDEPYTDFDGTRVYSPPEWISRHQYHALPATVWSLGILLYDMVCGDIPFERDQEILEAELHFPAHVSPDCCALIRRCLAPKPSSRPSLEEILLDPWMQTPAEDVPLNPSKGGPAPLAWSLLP

IC50 (Pim1 kinase)	IC50 (Pim2 kinase)	IC50 (Pim3 kinase)	EC50 [1]	SMILES
0.209 µM	2.88 µM	0.385 µM	≥ 10 µM	C[C@@H]1C[C@H](c2ccncc2NC(=O)c2ccnc(-c3c(F)cccc3F)n2)C[C@H](O)[C@]1(O)CO [Example 40, 2-(2,6-difluorophenyl)-N-(4-((1S,3S,4R,5R)-3,4-dihydroxy-4-(hydroxymethyl)-5-methylcyclohexyl)pyridin-3-yl) pyrimidine-4-carboxamide]
0.0446 µM	0.846 µM	0.434 µM	≥ 10 µM	CC[C@]1(O)[C@H](C)C[C@H](c2ccncc2NC(=O)c2ccc(F)c(-c3c(F)cccc3F)n2)C[C@@H]1O [Example 42, 6-(2,6-difluorophenyl)-N-(4-((1S,3S,4S,5R)-4-ethyl-3,4-dihydroxy-5-methylcyclohexyl)pyridin-3-yl)-5-fluoropicolinamide]
0.0004 µM	0.002 µM	0.002 µM	1.54 µM	CC(=O)OC[C@]1(O)[C@H](O)C[C@H](c2ccncc2NC(=O)c2ccc(F)c(-c3c(F)cccc3F)n2)C[C@@H]1C [Example 43, ((1S,2R,4R,6S)-4-(3-(6-(2,6-difluorophenyl)-5-fluoropicolinamido)pyridin-4-yl)-1,2-dihydroxy-6-methylcyclohexyl) methylacetate]
0.0086 µM	0.0442 µM	0.0293 µM	≥ 10 µM	CC(=O)OC[C@]1(O)[C@H](C)C[C@H](c2ccncc2NC(=O)c2ccc(F)c(-c3c(F)cccc3F)n2)C[C@@H]1O [Example 44, ((1R,2S,4S,6R)-4-(3-(6-(2,6-difluorophenyl)-5-fluoropicolinamido)pyridin-4-yl)-1,2-dihydroxy-6-methylcyclohexyl) methylacetate]
0.0014 µM	0.0109 µM	0.0035 µM	≥ 10 µM	C[C@H]1C[C@@H](c2ccncc2NC(=O)c2ccc(F)c(-c3c(F)ccc(C#N)c3F)n2)C[C@@H](O)[C@]1(C)O [Example 46, 6-(3-cyano-2,6-difluorophenyl)-N-(4-((1R,3R,4R,5S)-3,4-dihydroxy-4,5-dimethylcyclohexyl)pyridin-3-yl)-5-fluoropicolinamide]
0.0004 µM	0.0013 µM	0.0014 µM	0.87 µM	C[C@H]1C[C@@H](c2ccncc2NC(=O)c2nc(-c3c(F)cccc3F)c(F)cc2N)C[C@@H](O)[C@]1(C)O [Example 48, 3-amino-6-(2,6-difluorophenyl)-N-(4-((1R,3R,4R,5S)-3,4-dihydroxy-4,5-dimethylcyclohexyl)pyridin-3-yl)-5-fluoropicolinamide]
0.0006 µM	0.0035 µM	0.0015 µM	4.78 µM	COc1cc(F)c(-c2cccc(C(=O)Nc3cnccc3[C@H]3C[C@@H](O)[C@](C)(O)[C@@H](C)C3)n2)c(F)c1 [Example 50, 6-(2,6-difluoro-4-methoxyphenyl)-N-(4-((1R,3R,4R,5S)-3,4-dihydroxy-4,5-dimethylcyclohexyl)pyridin-3-yl) picolinamide]
0.002 µM	0.0135 µM	0.0036 µM	9.74 µM	C[C@H]1C[C@@H](c2ccncc2NC(=O)c2nc(-c3nccs3)ccc2N)C[C@@H](O)[C@]1(C)O [Example 52, 3-amino-N-(4-((1R,3R,4R,5S)-3,4-dihydroxy-4,5-dimethylcyclohexyl)pyridin-3-yl)-6-(thiazol-2-yl) picolinamide]
0.0033 µM	0.0679 µM	0.0121 µM	≥ 10 µM	C[C@H]1C[C@@H](c2ccncc2NC(=O)c2ccc(F)c(-c3ccc(C#N)cc3F)n2)C[C@@H](O)[C@]1(C)O [Example 54, 6-(4-cyano-2-fluorophenyl)-N-(4-((1R,3R,4R,5S)-3,4-dihydroxy-4,5-dimethylcyclohexyl)pyridin-3-yl)-5-fluoropicolinamide]
